Legend:
[1] = test system: Mouse erythroleukemia (MEL) cells; assay: Growth activity following maximal cell damage (two freeze/thaw cycles, 10% DMSO); type: cell-based
Experimental: Mouse erythroleukemia (MEL) cells were damaged from exposure to two freeze/thaw cycles. The cells were then grown in the presence of 10% dimethylsulfoxide (DMSO), a substance known to damage cell membranes. […] The cells were then subjected to two freeze/thaw cycles (the cells were quickly brought to −135° C., incubated for 1 hour at −135° C. and quickly thawed to 100% humidity and 37° C.). The cell concentration was then determined by counting, using a hematocytometer. The experiments were done in duplicate.

[2] = test system: Intact MEL cells; assay: Cell toxicity of Glucural in intact conditions: growth of MEL; type: cell-based, mouse; settings: for number of cells per ml, Regular conditions: 24 hours
[3] = test system: MEL cells; assay: Moderate damage: storage three days at −135° C. then growth in 1% DMSO; type: cell-based, mouse; settings: 24 hours
Experimental: The cells were then brought to −135° C. over a two-hour period and stored at this temperature for 3 days. […] The number of cells per ml. is x 10^4, columns represent different assays.

[4] = test system: rat thyroid-derived cell line FRTL-5; assay: Storage of FRTL-5 cells at low temperature, viability by well bottom coverage; type: cell-based
Experimental: The goal of the study was to assess the influence of Glucural on cell recovery of different mammalian cells suspended in various cryo-protectors. A single layer of the rat thyroid-derived cell line FRTL-5 was grown in VPF-12 medium containing 10% calf serum (C.S.) in Petri dishes (10 cm) stored in an environment of 5% CO2, 100% humidity and at 37° C. Cell coverage on the Petri dish bottom reached 80-90% over 6-8 days. A single-layer cell culture of the cell line from the anterior lobe of the pituitary gland (corticotrophs) of ATT-20 was grown in similar fashion but in D-MEM medium containing 10% C.S.
After exposure, cell suspensions were melted quickly in aliquots with cell suspension equal to 0.2 or 0.4 ml per well. The growing period varied depending on conditions of cell storage. All trials were performed in duplicate. Cell viability was estimated by the percentage of the well bottom covered by cells.
The same method was used here as in tests with MEL cells. Cryo-protectors used were not optimal for FRTL-5 and ATT-20 cells. Conditions of freezing were not optimal in assays # 1, 5 and 6.

[5] = test system: Human umbilical cord vein endothelial cells (HUCVEC); assay: HUCVEC Assays 2 and 3: starvation; type: cell-based; settings: 11 days without change of medium
Experimental: Glucural was also tested on two primer cell cultures for protection against cell death in sub-optimal conditions.
Human umbilical cord vein endothelial cells (HUCVEC) were isolated from freshly obtained human umbilical cords in accordance with known methods. HUCVEC were grown in multi-well plates. After saturation of the wells, the assays were initiated. Four wells were used for each experimental group. To cause “mechanical” damage, a higher (2-2½ times) centrifugal speed was used to pick up cells after trypsin treatment. To cause enzymatic damage, full-strength trypsin solution was used instead of the recommended diluted concentration. All assays were started from the last change of medium in wells with saturated cell culture (well bottoms were covered completely by cells). Results were estimated from the percentage of the bottom covered by cells on the last day of the assay.
Assay 2 and 3. Starvation—cell growth without change of medium during 11 days. Assays 2 and 3 were performed using two different HUCVEC isolations.

[6] = test system: Drosophila; assay: Sterol-deficit diet and both drugs: frequency of X-chromosomes loss in late oocytes of Drosophila; type: in vivo
Excerpt: The classic genetic model was used, based on the well-known method: the frequency of mutations in Drosophila (fruit flies) caused by X-rays. It is known that the frequency of these mutations can be increased by adding to the food of females certain membrane destabilizers (we used Polyene Antibiotics—Amphotericin B), or by the use of a special diet. Like all insects, Drosophila obtain all of their sterols from food (yeast for Drosophila). A special diet rich with Nistatin (Polyene antibiotic) resistant yeast was used.
The frequency of the loss of x-chromosomes (males excluded) was measured after crossing with the […]. Females were given a dose of 1000 Roentgens 5 days before being given the food additive or “special diet”.
Influence of sterol-deficit diet and both drugs on the frequency of X-chromosomes loss in late oocytes of Drosophila. Groups 1-4 received yeast of wild type, groups 5,6 (diet) received nistatin resistant yeasts meaning groups 5,6 had abnormal sterols in membranes: […]

complex of 2,4-dihydroxy-6-methylpyrimidine with N-methyl-D-glucamine [Glucural]
The number of cells per 1 ml ([1]; Glucural 5 mkg/ml): 0 ×10^4
The number of cells per 1 ml ([1]; Glucural 10 mkg/ml): 0 ×10^4
The number of cells per 1 ml ([1]; Glucural 25 mkg/ml): 53 ± 7 ×10^4
The number of cells per 1 ml ([1]; Glucural 50 mkg/ml): 107 ± 7 ×10^4
number of cells per ml, Regular conditions ([2]; Glucural 25 mkg/ml): 67 ± 1 x 10^4
number of cells per ml, Regular conditions ([2]; Glucural 50 mkg/ml): 68 ± 1 x 10^4
number of cells per ml, Regular conditions ([2]; Glucural 100 mkg/ml): 71 ± 2 x 10^4
number of cells per ml, Regular conditions ([2]; Glucural 200 mkg/ml): 58 ± 3 x 10^4
number of cells per ml, Regular conditions ([2]; Glucural 400 mkg/ml): 69 ± 5 x 10^4
influence on cells in regular conditions ([2]; Glucural from 25 to 400 mkg/ml): no influence
number of cells per ml, Moderate damage ([3]; Glucural 25 mkg/ml): 58 ± 3 x 10^4
number of cells per ml, Moderate damage ([3]; Glucural 50 mkg/ml): 76 ± 1 x 10^4
number of cells per ml, Moderate damage ([3]; Glucural 100 mkg/ml): 82 ± 1 x 10^4
number of cells per ml, Moderate damage ([3]; Glucural 200 mkg/ml): 163 ± 3 x 10^4
Percentage of well bottom covered by cells ([4]; #1 FRTL-5 (4 days), 10% Glycerol, −70° C., Glucural 100 mg/ml): 90-100%
Percentage of well bottom covered by cells ([4]; #1 FRTL-5 (4 days), 10% Glycerol, −70° C., Glucural 200 mg/ml): 90-100%
Percentage of well bottom covered by cells ([4]; #2 FRTL-5 (36 days), 10% Glycerol, −190° C., Glucural 100 mg/ml): 10-15%
Percentage of well bottom covered by cells ([4]; #3 FRTL-5 (4 days), 50% C.S., 0° C., 30 min, Glucural 100 mg/ml): 60-70%
Percentage of well bottom covered by cells ([4]; #3 FRTL-5 (4 days), 50% C.S., 0° C., 30 min, Glucural 200 mg/ml): 60-70%
Percent of well-bottoms covered by cells ([5]; Assay 2, Glucural 300 mkg/ml): 70-80%
Percent of well-bottoms covered by cells ([5]; Assay 2, Glucural 400 mkg/ml): 80-90%
Percent of well-bottoms covered by cells ([5]; Assay 2, Glucural 500 mkg/ml): 80-90%
Percent of well-bottoms covered by cells ([5]; Assay 3, Glucural 300 mkg/ml): 100%
Percent of well-bottoms covered by cells ([5]; Assay 3, Glucural 400 mkg/ml): 100%
Percent of well-bottoms covered by cells ([5]; Assay 3, Glucural 500 mkg/ml): 100%
Protective Effect of Glucural, % ([6]; Amphotericin B/Glucural vs Amphotericin B): 26%
Frequency of X-Chromosomes loss, % ([6]; Diet (nistatin resistant yeasts)): 4.1 ± 0.33%
Protective Effect of Glucural, % ([6]; Diet/Glucural vs Diet): 27%
Protective Effect of Glucural, % ([6]; Glucural vs Control): 50%
Frequency of X-Chromosomes loss, % ([6]; yeast of wild type): 0.9 ± 0.14%

— patent US20050064382A1, “Method of prevention of lysosomal leakage in eukaryotic cells by using 6-methyluracil based water-soluble compounds and method of producing thereof” (priority 2002, published 2005)
